Experimental findings from paper PMC3605045, “GH1-family 6-P-β-glucosidases from human microbiome lactic acid bacteria” (Acta Crystallographica Section D: Biological Crystallography, 2013) are described below.

One experiment has as its target T1, LpPgb1 (Lactiplantibacillus plantarum, UniProt F9UU25).
T1 construct: gene pbg1; full length Met1-Glu478, 478 residues, ~55 kDa, homodimer; His6 cut by TEV, SNA- left at N-terminus; E. coli BL21 (DE3) Magic, pMCSG7
The experiment can be described thus: G6PDH-coupled NADPH absorbance assay ([…] nm). The settings on record: 0.1 M HEPES-NaOH pH 8.0, 2 mM NADP+, 298 K; native enzyme 0.02 µM. The format is biochemical.

The target in the next experiment is T2, SmBgl (Streptococcus mutans, UniProt Q8DT00).
T2 construct: gene bgl; full length, 477 residues, ~55 kDa, homodimer; His6 cut by TEV, SNA- left at N-terminus; E. coli BL21 (DE3) Magic, pMCSG7; SeMet-labelled protein in kinetic assays
The experiment can be described thus: X-ray crystal structure, […] Å. In kind it is binding. The settings on record: crystallised with 5 mM 6'-P-gentiobiose; product in phosphate and -1 subsites.

As for `O=P(O)(O)OC[C@H]1O[C@@H](O[C@H]2[C@H](O)[C@@H](O)C(O)O[C@@H]2CO)[C@H](O)[C@@H](O)[C@@H]1O` (stereo partly drawn) [6′-P-cellobiose], the “G6PDH-coupled NADPH absorbance assay (340 nm)” value on LpPgb1 is listed as “Both enzymes showed hydrolytic activity towards all of these substrates”.

As for `O=P(O)(O)OC[C@H]1O[C@@H](OC[C@H]2OC(O)[C@H](O)[C@@H](O)[C@@H]2O)[C@H](O)[C@@H](O)[C@@H]1O` (stereo partly drawn) [6′-P-gentiobiose], at LpPgb1, the “G6PDH-coupled NADPH absorbance assay (340 nm)” value is reported as “Both enzymes showed hydrolytic activity towards all of these substrates”. In the case of `O=P(O)(O)OC[C@H]1OC(O)[C@H](O)[C@@H](O)[C@@H]1O` (stereo partly drawn) [BG6, 6-P-β-glucose], the “X-ray crystal structure, 1.48 Å” value at SmBgl is on record as “two BG6 ligands”.
